# Measurements from patent US20120245201A1, “Isopropylphenidate for Treatment of Attention-Deficit/Hyperactivity Disorder and Fatigue-Related Disorders and Conditions” (priority 2009, published 2012).
# How the values were obtained:
# [1] = target: T1, human dopamine (DA) transporter (DAT) (Homo sapiens, UniProt Q01959); assay: Dopamine transporter binding assay ([3H]GBR 12935, CEREP); details: HCl salts
# T1 construct: host or cells: CHO cells, cell membrane homogenates
# Protocol: Transporter Binding and Cellular Uptake. All described monoamine transporter binding studies as well as cellular uptake assays were performed in duplicate by CEREP (Celle l'Evescault, France) and are described below. Further details of all assays performed may be accessed at the CEREP web site (world-wide-web at cerep.com). Cellular-based assays were conducted to provide complementary in vitro functional measures to complement the standard transporter assays as well as to provide direct comparisons of the homologs IPH with MPH with regard to DA, NE, and 5-HT uptake in synaptosomal preparations. […]
# Dopamine Transporter Binding Assay. Evaluation of the affinity of both compounds for the human dopamine (DA) transporter (DAT) in transfected Chinese Hamster Ovary (CHO) cells was determined in a validated radioligand binding assay. […] Nonspecific binding was determined in the presence of 10 μM N-[1-(Benzo[b]thien-2-yl-cyclohexyl)] piperidine (BTCP). […] The filters were then dried and measured for radioactivity with a scintillation counter (TopCount, Packard) using a liquid scintillation cocktail (Microscint 0, Packard). The results of DAT binding experiments as well as the other transporter assays described in the following sections were expressed as a percent inhibition of the control radioligand specific binding. […]
# [2] = target: T2, human norepinephrine (NE) transporter (NET) (Homo sapiens, UniProt P23975); assay: Norepinephrine transporter binding assay ([3H]nisoxetine, CEREP)
# T2 construct: host or cells: CHO cells, cell membrane homogenates
# Protocol: (§1) Transporter Binding and Cellular Uptake. All described monoamine transporter binding studies as well as cellular uptake assays were performed in duplicate by CEREP (Celle l'Evescault, France) and are described below. Further details of all assays performed may be accessed at the CEREP web site (world-wide-web at cerep.com). Cellular-based assays were conducted to provide complementary in vitro functional measures to complement the standard transporter assays as well as to provide direct comparisons of the homologs IPH with MPH with regard to DA, NE, and 5-HT uptake in synaptosomal preparations.
# Norepinephrine Transporter Binding Assay. Evaluation of the affinity of the two compounds for the human norepinephrine (NE) transporter (NET) in transfected CHO cells was determined in a radioligand assay analogous to the procedures described for the DAT assay. Cell membrane homogenates were incubated for 90 min at 4° C. with 1 nM [^3H]nisoxetine in the absence or presence of each test compound in a standard buffer solution. Nonspecific binding was determined in the presence of 1 μM of desipramine. Following incubation, the samples were filtered rapidly under vacuum and rinsed several times with a buffer solution. The filters were then dried and radioactivity counts were obtained. The results are expressed as percent inhibition of the control radioligand specific binding. The standard reference compound was the tricyclic antidepressant (TCA) protriptyline, which was tested in each experiment at several concentrations to generate a competition curve from which its IC50 was calculated.
# [3] = target: T3, human serotonin 5-HT transporter (SERT) (Homo sapiens, UniProt P31645); assay: Serotonin transporter binding assay ([3H]imipramine, CEREP); details: ligand [3H]imipramine, transfected CHO cells, HCl salts
# T3 construct: host or cells: CHO cells, cell membrane homogenates
# Protocol: as §1, with “preparations. The concentration of MPH, EPH, and IPH utilized in these studies was 10 μM, which represents a generally accepted screening concentration when evaluating compounds in this manner.” for “preparations.”
# Serotonin Transporter Binding Assay. […] Briefly, cell membrane homogenates were incubated for 90 min at 4° C. with 2 nM of [^3H]imipramine in the absence and presence of each of the assessed compounds. Nonspecific binding was determined in the presence of 10 μM of imipramine. […] The filters were then dried and measured for radioactivity via scintillation counter. The standard reference compound was the TCA imipramine, which was tested in each experiment at several concentrations to generate a competition curve from which its IC50 was calculated.
# [4] = system: NE uptake, synaptosomes prepared from the rat hypothalamus; assay: Norepinephrine uptake into synaptosomes; assay type: cell-based
# Protocol: as §1
# [5] = system: 5-HT uptake, synaptosomes prepared from the rat brain; assay: Serotonin uptake into synaptosomes; assay type: cell-based
# Protocol: as §1
# Serotonin Uptake. The assessment of the relative effects of IPH and MPH on 5-HT uptake utilized measures of [^3H]5-HT incorporation into synaptosomes prepared from the rat brain. […] Following incubation, the samples were filtered, counted using a scintillation instrument, and the results expressed as a percent inhibition of the control uptake of [^3H]5-HT. The standard inhibitory reference compound was the TCA imipramine, which was tested in each experiment at several concentrations to obtain an inhibition curve from which its IC50 value was calculated.
# T2 sequence (P23975 whole entry): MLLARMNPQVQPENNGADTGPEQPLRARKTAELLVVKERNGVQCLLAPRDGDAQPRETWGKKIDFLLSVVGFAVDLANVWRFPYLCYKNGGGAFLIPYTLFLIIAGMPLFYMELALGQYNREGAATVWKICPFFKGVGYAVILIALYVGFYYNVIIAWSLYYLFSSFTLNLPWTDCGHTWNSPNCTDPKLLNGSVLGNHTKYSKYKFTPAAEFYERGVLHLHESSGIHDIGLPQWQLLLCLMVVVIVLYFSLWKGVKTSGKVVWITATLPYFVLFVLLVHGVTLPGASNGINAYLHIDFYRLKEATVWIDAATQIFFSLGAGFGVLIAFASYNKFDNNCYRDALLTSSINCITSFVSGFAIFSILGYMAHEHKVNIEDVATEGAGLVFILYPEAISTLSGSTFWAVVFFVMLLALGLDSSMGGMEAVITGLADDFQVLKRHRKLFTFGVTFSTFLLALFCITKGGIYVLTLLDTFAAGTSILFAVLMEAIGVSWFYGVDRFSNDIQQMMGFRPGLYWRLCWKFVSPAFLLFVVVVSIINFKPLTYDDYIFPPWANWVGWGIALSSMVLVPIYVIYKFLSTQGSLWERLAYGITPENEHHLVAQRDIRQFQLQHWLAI
# T3 sequence (P31645 whole entry): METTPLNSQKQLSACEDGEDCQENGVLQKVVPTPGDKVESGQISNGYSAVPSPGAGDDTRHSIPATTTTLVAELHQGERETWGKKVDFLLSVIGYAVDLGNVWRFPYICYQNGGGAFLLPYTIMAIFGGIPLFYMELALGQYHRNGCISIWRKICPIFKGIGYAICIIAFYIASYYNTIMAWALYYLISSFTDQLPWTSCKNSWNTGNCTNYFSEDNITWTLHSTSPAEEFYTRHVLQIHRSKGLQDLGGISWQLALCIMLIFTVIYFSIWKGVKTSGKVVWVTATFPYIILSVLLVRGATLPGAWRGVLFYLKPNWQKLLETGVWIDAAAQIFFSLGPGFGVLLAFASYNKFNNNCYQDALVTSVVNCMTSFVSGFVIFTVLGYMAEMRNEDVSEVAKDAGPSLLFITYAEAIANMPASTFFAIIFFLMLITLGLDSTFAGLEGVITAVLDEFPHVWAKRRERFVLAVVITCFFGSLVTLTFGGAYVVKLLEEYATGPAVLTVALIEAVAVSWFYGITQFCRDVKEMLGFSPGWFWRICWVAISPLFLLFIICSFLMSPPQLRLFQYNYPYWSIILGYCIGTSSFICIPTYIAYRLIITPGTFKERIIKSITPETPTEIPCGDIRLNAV
# T1 sequence (Q01959 whole entry): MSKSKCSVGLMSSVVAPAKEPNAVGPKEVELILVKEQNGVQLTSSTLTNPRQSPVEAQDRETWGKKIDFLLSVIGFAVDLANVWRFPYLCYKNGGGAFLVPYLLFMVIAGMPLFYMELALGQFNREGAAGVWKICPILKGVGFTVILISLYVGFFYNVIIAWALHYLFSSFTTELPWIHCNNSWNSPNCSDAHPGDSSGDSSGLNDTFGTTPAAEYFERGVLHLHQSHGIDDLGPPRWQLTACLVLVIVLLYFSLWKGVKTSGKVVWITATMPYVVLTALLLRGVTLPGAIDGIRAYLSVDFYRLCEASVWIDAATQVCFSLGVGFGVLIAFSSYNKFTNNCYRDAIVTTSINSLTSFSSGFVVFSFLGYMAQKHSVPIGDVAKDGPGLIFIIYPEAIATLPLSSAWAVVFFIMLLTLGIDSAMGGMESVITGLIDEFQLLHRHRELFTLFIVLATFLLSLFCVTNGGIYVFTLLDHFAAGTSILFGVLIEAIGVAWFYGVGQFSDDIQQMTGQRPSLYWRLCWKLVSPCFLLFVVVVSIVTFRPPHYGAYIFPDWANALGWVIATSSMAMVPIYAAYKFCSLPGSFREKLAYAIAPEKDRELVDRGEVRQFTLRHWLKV
SMILES,"% inhibition of control specific binding, DAT (h) ([1]; 10 μM, ligand [3H]GBR-12935, transfected CHO cells) [%]","NET affinity of IPH relative to MPH ([2]; 10 μM, inhibition of specific control binding)","% inhibition of control specific binding, NET (h) ([2]; 10 μM, ligand [3H]nisoxetine, transfected CHO cells, HCl salts) [%]","% inhibition of control specific binding, SERT (h) ([3]; 10 μM) [%]",% inhibition of control specific binding; [3H]NE incorporation into synaptosomes ([4]; 10 μM) [%],% inhibition of control specific binding; [3H]5-HT incorporation into synaptosomes ([5]; 10 μM) [%],"inhibition at 10 µM ([1]; ligand [3H]GBR-12935, transfected CHO cells, read-out: % inhibition of control specific binding, DAT (h)) [%]","inhibition at 10 µM ([2]; ligand [3H]nisoxetine, transfected CHO cells, HCl salts, read-out: % inhibition of control specific binding, NET (h)) [%]","inhibition at 10 µM ([3]; read-out: % inhibition of control specific binding, SERT (h)) [%]","inhibition at 10 µM ([4]; read-out: % inhibition of control specific binding, [3H]NE incorporation into synaptosomes) [%]","inhibition at 10 µM ([5]; read-out: % inhibition of control specific binding, [3H]5-HT incorporation into synaptosomes) [%]"
"CC(C)OC(=O)C(c1ccccc1)C1CCCCN1 (racemic) [IPH, dl-threo-α-phenyl-2-piperidineacetic acid isopropyl ester]",97,one-third,27,20,62,28,–,–,–,–,–
"COC(=O)C(c1ccccc1)C1CCCCN1 (racemic) [MPH, dl-threo-methylphenidate, reference compound]",–,–,–,–,–,–,101,88,6,117,35
